Experiment [1] addresses T1, Sodium- and chloride-dependent GABA transporter 3 (Mus musculus, UniProt P31650).
T1 sequence (P31650 whole entry): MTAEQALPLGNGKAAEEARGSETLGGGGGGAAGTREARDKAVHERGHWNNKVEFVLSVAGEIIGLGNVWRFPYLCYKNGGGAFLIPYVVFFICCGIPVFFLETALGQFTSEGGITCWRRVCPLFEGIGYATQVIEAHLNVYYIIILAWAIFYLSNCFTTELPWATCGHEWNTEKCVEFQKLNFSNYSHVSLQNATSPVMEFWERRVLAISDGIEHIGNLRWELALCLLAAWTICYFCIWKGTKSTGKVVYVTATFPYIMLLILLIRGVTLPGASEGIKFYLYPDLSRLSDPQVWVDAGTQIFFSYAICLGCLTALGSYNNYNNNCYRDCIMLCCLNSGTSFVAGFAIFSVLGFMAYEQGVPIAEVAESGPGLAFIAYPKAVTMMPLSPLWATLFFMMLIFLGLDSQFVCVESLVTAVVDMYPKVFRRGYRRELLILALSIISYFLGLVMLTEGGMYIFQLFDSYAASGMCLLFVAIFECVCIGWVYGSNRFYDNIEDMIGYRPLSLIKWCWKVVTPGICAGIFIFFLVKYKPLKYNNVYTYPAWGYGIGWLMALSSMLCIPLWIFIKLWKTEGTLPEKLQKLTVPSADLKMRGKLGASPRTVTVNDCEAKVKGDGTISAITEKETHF
Briefly: Inhibition of mouse GAT3-mediated [3H]GABA uptake stably transfected in HEK293 cells.

For experiment [2], the target named is T2, Sodium- and chloride-dependent GABA transporter 2 (Mus musculus, UniProt P31649).
T2 sequence (P31649 whole entry): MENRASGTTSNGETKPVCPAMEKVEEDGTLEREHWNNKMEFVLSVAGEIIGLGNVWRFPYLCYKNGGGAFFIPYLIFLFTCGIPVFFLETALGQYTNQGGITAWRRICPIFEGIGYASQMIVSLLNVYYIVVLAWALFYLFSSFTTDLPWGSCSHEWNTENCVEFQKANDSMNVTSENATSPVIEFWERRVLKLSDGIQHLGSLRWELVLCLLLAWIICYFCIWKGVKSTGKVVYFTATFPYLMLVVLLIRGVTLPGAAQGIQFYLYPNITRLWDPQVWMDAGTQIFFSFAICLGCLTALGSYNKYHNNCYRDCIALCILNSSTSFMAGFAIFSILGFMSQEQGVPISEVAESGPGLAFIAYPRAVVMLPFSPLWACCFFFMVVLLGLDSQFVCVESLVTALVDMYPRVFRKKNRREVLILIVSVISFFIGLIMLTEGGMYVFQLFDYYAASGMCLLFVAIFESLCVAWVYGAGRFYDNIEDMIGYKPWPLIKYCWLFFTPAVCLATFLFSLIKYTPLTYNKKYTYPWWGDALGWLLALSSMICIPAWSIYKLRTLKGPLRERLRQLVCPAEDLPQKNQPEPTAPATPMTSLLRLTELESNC
Briefly: Inhibition of mouse GAT2-mediated [3H]GABA uptake stably transfected in HEK293 cells.

Structures are written as SMILES.

The values that follow come from BindingDB's records for doi:10.1016/j.bmc.2013.06.038 (Jagiellonian University Medical College, 2013).

In general, IC50 refers to the concentration needed to halve the response being measured. A higher IC50 goes with lower potency.

`CN(CCCC(c1ccccc1)c1ccccc1)C(CCO)C(=O)NCc1ccc(Cl)cc1` (centres undefined) showed an IC50 in experiment [1] of 13.2 µM. That is a double-digit micromolar value.

Regarding `Cc1ccc(CNC(=O)[C@@H](C[C@@H](C)O)N2CCC(=C(c3ccccc3)c3ccccc3)CC2)cc1`, the figures for the IC50 in experiment [2] and in experiment [1] were 24 µM and 57.5 µM, respectively.

With `C[C@@H](O)C[C@H](C(=O)NCc1ccc(F)cc1)N1CCC(=C(c2ccccc2)c2ccccc2)CC1`, the IC50 in experiment [2] was 64.6 µM; in experiment [1], 26.9 µM.

For the compound `Cc1ccc(CNC(=O)C(CCO)N(C)CCC=C(c2ccccc2)c2ccccc2)cc1` (centres undefined), the IC50 in experiment [2] amounted to 14.5 µM; in experiment [1] it was 11.7 µM.

In experiment [1], `CN(CCC=C(c1ccccc1)c1ccccc1)C(CCO)C(=O)NCc1ccc(F)cc1` (centres undefined) returned an IC50 of 11.2 µM.

In the case of `O=C(NCc1ccc(F)cc1)C(CCO)N1CCC(C(c2ccccc2)c2ccccc2)CC1` (centres undefined), the IC50 amounted to 55 µM in experiment [2] and 34.7 µM in experiment [1].

`Cc1ccc(CNC(=O)C(CCO)N2CCC(=C(c3ccccc3)c3ccccc3)CC2)cc1` (centres undefined) had an IC50 in experiment [2] of 30.9 µM.

For the compound `O=C(NCc1ccccc1)C(CCO)N1CCC(=C(c2ccccc2)c2ccccc2)CC1` (centres undefined), the IC50 was 46.8 µM in experiment [2] and 37.2 µM in experiment [1].

Regarding `C[C@H](O)C[C@H](C(=O)NCc1ccc(F)cc1)N1CCC(=C(c2ccccc2)c2ccccc2)CC1`, the values for the IC50 in experiment [2] and in experiment [1] were 100 µM and 55 µM, respectively.

For the compound `Cc1ccc(CNC(=O)C(CCO)N2CCC(C(c3ccccc3)c3ccccc3)CC2)cc1` (centres undefined), the IC50 is 38 µM in experiment [2] and 42.7 µM in experiment [1].

Compound `CN(CCC=C(c1ccccc1)c1ccccc1)C(CCO)C(=O)NCc1ccccc1Cl` (centres undefined) returned an IC50 in experiment [2] of 12.6 µM.

Regarding `C[C@H](O)C[C@H](C(=O)NCc1ccccc1)N1CCC(=C(c2ccccc2)c2ccccc2)CC1`, the IC50 in experiment [2] stood at 61.7 µM; in experiment [1], 30.9 µM.

Consider `O=C(NCc1ccc(Cl)cc1)C(CCO)N1CCC(C(c2ccccc2)c2ccccc2)CC1` (centres undefined), for which the figures for the IC50 in experiment [2] and in experiment [1] were 60.3 µM and 32.4 µM, respectively.

In experiment [2], `O=C(NCc1ccc(Cl)cc1)C(CCO)N1CCC(=C(c2ccccc2)c2ccccc2)CC1` (centres undefined) returned an IC50 of 19.5 µM.

Consider `C[C@H](O)C[C@H](C(=O)NCc1ccccc1Cl)N1CCC(=C(c2ccccc2)c2ccccc2)CC1`, for which half-maximal inhibition in experiment [1] (IC50) was put at 28.8 µM. This lies in the double-digit micromolar range.

In experiment [1], `O=C(NCc1ccccc1Cl)C(CCO)NCCCC(c1ccccc1)c1ccccc1` (centres undefined) came in with an IC50 of 18.2 µM.

With `O=C(NCc1ccccc1Cl)C(CCO)N1CCC(=C(c2ccccc2)c2ccccc2)CC1` (centres undefined), the IC50 in experiment [2] amounted to 75.9 µM; in experiment [1], 56.2 µM.

In the case of `CN(CCCC(c1ccccc1)c1ccccc1)C(CCO)C(=O)NCc1ccccc1` (centres undefined), the figures for the IC50 in experiment [2] and in experiment [1] were 39.8 µM and 32.4 µM, respectively.

For `O=C(NCc1ccccc1)C(CCO)NCCCC(c1ccccc1)c1ccccc1` (centres undefined), the IC50 stood at 28.8 µM in experiment [2] and 35.5 µM in experiment [1].

As for `O=C(NCc1ccccc1Cl)C(CCO)N1CCC(C(c2ccccc2)c2ccccc2)CC1` (centres undefined), the figures for the IC50 in experiment [2] and in experiment [1] were 49 µM and 36.3 µM, respectively.

Take `CN(CCCC(c1ccccc1)c1ccccc1)C(CCO)C(=O)NCc1ccc(F)cc1` (centres undefined): the figures for the IC50 in experiment [2] and in experiment [1] were 41.7 µM and 38.9 µM, respectively.

In the case of `CN(CCC=C(c1ccccc1)c1ccccc1)C(CCO)C(=O)NCc1ccc(Cl)cc1` (centres undefined), the values for the half-inhibitory concentration (IC50) in experiment [2] and in experiment [1] were 13.2 µM and 9.55 µM, respectively.

Regarding `C[C@H](O)C[C@H](C(=O)NCc1ccc(Cl)cc1)N1CCC(=C(c2ccccc2)c2ccccc2)CC1`, it took 42.7 µM to reach half-maximal inhibition in experiment [1] (IC50).

In experiment [2], `Cc1ccc(CNC(=O)[C@@H](C[C@H](C)O)N2CCC(=C(c3ccccc3)c3ccccc3)CC2)cc1` gave an IC50 of 50.1 µM.

`CN(CCC=C(c1ccccc1)c1ccccc1)C(CCO)C(=O)NCc1ccccc1` (centres undefined): the IC50 in experiment [2] stood at 26.9 µM; in experiment [1], 13.5 µM.

Take `O=C(NCc1ccc(Cl)cc1)C(CCO)NCCCC(c1ccccc1)c1ccccc1` (centres undefined): the results for the IC50 in experiment [2] and in experiment [1] were 11 µM and 14.8 µM, respectively.

For `CN(CCCC(c1ccccc1)c1ccccc1)C(CCO)C(=O)NCc1ccccc1Cl` (centres undefined), the 50% inhibitory concentration (IC50) in experiment [2] came to 28.8 µM; in experiment [1], 16.2 µM.

`Cc1ccc(CNC(=O)C(CCO)NCCCC(c2ccccc2)c2ccccc2)cc1` (centres undefined) registered an IC50 in experiment [2] of 17 µM.

On to `O=C(NCc1ccc(F)cc1)C(CCO)N1CCC(=C(c2ccccc2)c2ccccc2)CC1` (centres undefined), for which the figures for the IC50 in experiment [2] and in experiment [1] were 16.6 µM and 28.2 µM, respectively.

In the case of `O=C(NCc1ccc(F)cc1)C(CCO)NCCCC(c1ccccc1)c1ccccc1` (centres undefined), the IC50 in experiment [2] was determined as 26.9 µM; in experiment [1], 22.9 µM.

As to `Cc1ccc(CNC(=O)C(CCO)N(C)CCCC(c2ccccc2)c2ccccc2)cc1` (centres undefined), in experiment [2], the IC50 amounted to 28.8 µM.

Compound `O=C(NCc1ccccc1)C(CCO)N1CCC(C(c2ccccc2)c2ccccc2)CC1` (centres undefined) returned an IC50 in experiment [1] of 41.7 µM.

Take `C[C@@H](O)C[C@H](C(=O)NCc1ccccc1)N1CCC(=C(c2ccccc2)c2ccccc2)CC1`: the IC50 in experiment [2] is 49 µM; in experiment [1], 21.9 µM.
